Laboratory results reported in article PMC12557437, “Research towards selective inhibition of the CLK3 kinase” (Beilstein Journal of Organic Chemistry, 2025).
“And” between values parts separate entries of the source, which are not always exact repeats. Equal values may be shown once. “Also recorded” adds a separate entry of the source.

Assays:
Assay type in all cases: biochemical
Mm_CLK4 = Mm_CLK4 (Mus musculus, UniProt O35493); assay: radiometric γ33P-ATP kinase assay (Eurofins)
Description: (§1) The results are reported in Table 2 and in Supporting Information File 1.
(§2) 2- Kinase inhibition studies
(§3) Kinase enzymatic activities were assayed using both luminescent ADP detection assay
(§4) (ADP-GloTM assay kit, Promega, Madison, WI) or radiometric kinase assay. These
(§5) assays were performed using the protocols described in our previous publication. […]
(§6) 1.Brahmaiah, D.; Kanaka Durga Bhavani, A.; Aparna, P.; Sampath Kumar, N.; Solhi,
(§7) H.; Le Guevel, R.; Baratte, B.; Ruchaud, S.; Bach, S.; Singh Jadav, S.; Raji Reddy, C.;
(§8) Roisnel, T.; Mosset, P.; Levoin, N.; Grée, R. Bioorg.
(§9) R.; Baratte, B.; Robert, T.; Ruchaud, S.; Bach, S.; Jadav, S. S.; Reddy, C. […]

Mm_CLK2 = Mm_CLK2 (Mus musculus, UniProt O35491); assay: radiometric γ33P-ATP kinase assay (Eurofins)
Description: as §1, §2, §3, §4, §5, §6, §7, §8, §9

Mm_CLK1 [1] = target: T1, Mm_CLK1 (Mus musculus, UniProt P22518); assay: radiometric γ33P-ATP kinase assay (Eurofins)
Description: as §1, §2, §3, §4, §5, §6, §7, §8, §9

Hs_HASPIN = target: T2, Hs_HASPIN (Homo sapiens, UniProt Q8TF76); assay: primary screening, short panel of mammalian kinases; conditions: ATP 10 µM, means, n = 2, read-out: Residual kinase activity Hs_HASPIN
T2 sequence (Q8TF76 1-798): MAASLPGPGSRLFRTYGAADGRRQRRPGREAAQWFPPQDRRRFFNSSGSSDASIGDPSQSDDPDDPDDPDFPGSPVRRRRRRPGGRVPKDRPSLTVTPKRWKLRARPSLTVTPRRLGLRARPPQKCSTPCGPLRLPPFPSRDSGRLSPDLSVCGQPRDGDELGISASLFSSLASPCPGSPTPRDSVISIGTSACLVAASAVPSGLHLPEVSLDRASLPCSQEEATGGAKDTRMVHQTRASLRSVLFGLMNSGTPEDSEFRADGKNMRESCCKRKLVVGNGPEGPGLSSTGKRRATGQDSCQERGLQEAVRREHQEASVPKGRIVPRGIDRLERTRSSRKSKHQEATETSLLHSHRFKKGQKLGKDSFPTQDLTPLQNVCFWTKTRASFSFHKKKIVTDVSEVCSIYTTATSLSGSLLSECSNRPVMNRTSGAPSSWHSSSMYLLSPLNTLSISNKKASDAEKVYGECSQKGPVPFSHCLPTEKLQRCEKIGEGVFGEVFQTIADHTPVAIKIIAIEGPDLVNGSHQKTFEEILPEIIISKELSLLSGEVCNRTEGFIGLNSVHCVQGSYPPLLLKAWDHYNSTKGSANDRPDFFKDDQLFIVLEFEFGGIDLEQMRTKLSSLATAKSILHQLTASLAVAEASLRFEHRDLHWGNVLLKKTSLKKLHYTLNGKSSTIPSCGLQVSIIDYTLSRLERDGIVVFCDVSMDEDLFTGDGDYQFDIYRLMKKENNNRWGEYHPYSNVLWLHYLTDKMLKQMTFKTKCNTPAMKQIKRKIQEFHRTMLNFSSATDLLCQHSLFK
Excerpt: (§10) Our molecules have been submitted first to a primary screening against a panel of eight disease-related kinases: five members of the CMGC (for CDK, MAPK, GSK3, and CLK) group (CDK5/p25, CDK9/CyclinT, GSK3β, CLK1 and DYRK1A), one CAMK (calmodulin/calcium regulated kinase PIM1), one CK1 (the casein kinase CK1ε), and haspin as a […] kinase.
(§11) Figure 4 Primary evaluation of the inhibition of the new quinazolines against a short panel of mammalian kinases. Residual kinase activities are expressed in % of maximal activity, i.e., measured in the absence of inhibitor but with an equivalent dose of DMSO (solvent of the tested compounds). ATP concentration used in the kinase assays was 10 µM (values are means, n = 2). Kinases are from human origin (Homo sapiens) except CLK1 (from Mus musculus) and DYRK1A (from Rattus norvegicus). […]

Rn_DYRK1A = Rn_DYRK1A (Rattus norvegicus, UniProt Q63470); assay: as above; conditions: ATP 10 µM, means, n = 2, read-out: Residual kinase activity Rn_DYRK1A
Excerpt: as §10, §11

Hs_PIM1 = Hs_PIM1 (Homo sapiens, UniProt P11309); assay: as above; conditions: ATP 10 µM, means, n = 2, read-out: Residual kinase activity Hs_PIM1
Excerpt: as §10, §11

Hs_CDK9/CyclinT = Hs_CDK9/CyclinT (Homo sapiens, UniProt P50750); assay: as above; conditions: ATP 10 µM, means, n = 2, read-out: Residual kinase activity Hs_CDK9/CyclinT
Excerpt: as §10, §11

Hs_GSK3β = Hs_GSK3β (Homo sapiens, UniProt P49841); assay: as above; conditions: ATP 10 µM, means, n = 2, read-out: Residual kinase activity Hs_GSK3β
Excerpt: as §10, §11

Mm_CLK1 [2] = target: T1, Mm_CLK1; assay: as above
Excerpt: as §10, §11

Hs_CDK5/p25 = Hs_CDK5/p25 (Homo sapiens, UniProt Q00535); assay: as above; conditions: ATP 10 µM, means, n = 2, read-out: Residual kinase activity Hs_CDK5/p25
Excerpt: as §10, §11

Hs_CK1ε = Hs_CK1ε (Homo sapiens, UniProt P49674); assay: as above; conditions: ATP 10 µM, means, n = 2, read-out: Residual kinase activity Hs_CK1ε
Excerpt: as §10, §11

Mm_CLK3 = Mm_CLK3 (Mus musculus, UniProt O35492); assay: radiometric γ33P-ATP kinase assay (Eurofins); conditions: 15 µM ATP; dose-response, points in duplicate
Description: as §1, §2, §3, §4, §5, §6, §7, §8
R.; Baratte, B.; Robert, T.; Ruchaud, S.; Bach, S.; Jadav, S. S.; Reddy, C. R.; Mosset,
P.; Gouault, N.; Levoin, N.; Grée, R. Molecules 2022, 27, 6149. […]

DYRK kinases = assay: radiometric kinase assay, summary for DYRK kinases; conditions: DYRK1A, DYRK1B, DYRK2; listed as VS-77
Excerpt: Finally, in order to complete our profiling of VS-77, we then measured its activity against the DYRK 1A, DYRK1B and DYRK2 kinases and the results are reported in Table 3.
This point will be discussed in the molecular modeling part below.

[3] = 15 µM ATP, dose-response, points in duplicate

T1 sequence (P22518 whole entry): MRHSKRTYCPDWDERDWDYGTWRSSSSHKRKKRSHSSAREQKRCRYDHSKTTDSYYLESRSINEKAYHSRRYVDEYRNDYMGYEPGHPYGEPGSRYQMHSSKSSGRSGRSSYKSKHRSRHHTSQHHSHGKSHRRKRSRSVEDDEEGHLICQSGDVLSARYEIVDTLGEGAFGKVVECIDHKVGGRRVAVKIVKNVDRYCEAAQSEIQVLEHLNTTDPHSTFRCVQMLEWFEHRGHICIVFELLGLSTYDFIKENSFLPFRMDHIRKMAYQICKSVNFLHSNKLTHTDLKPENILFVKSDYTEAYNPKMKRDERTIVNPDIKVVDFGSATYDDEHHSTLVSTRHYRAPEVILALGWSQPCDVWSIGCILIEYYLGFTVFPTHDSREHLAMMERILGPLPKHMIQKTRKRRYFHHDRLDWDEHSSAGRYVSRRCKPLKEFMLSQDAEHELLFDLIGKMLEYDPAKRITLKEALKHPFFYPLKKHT
Hs_GSK3β, sequence (P49841 whole entry): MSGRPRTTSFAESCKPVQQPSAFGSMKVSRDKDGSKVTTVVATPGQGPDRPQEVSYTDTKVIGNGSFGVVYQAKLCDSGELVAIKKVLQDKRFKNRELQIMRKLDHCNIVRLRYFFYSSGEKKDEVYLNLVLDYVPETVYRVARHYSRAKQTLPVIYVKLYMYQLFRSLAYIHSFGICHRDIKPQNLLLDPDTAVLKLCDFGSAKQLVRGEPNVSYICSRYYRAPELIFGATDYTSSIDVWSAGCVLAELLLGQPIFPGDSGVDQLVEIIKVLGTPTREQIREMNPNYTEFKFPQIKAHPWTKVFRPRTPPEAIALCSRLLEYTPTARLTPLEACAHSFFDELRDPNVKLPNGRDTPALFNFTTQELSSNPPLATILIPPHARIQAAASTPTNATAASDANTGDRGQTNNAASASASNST
Hs_CK1ε, sequence (P49674 whole entry): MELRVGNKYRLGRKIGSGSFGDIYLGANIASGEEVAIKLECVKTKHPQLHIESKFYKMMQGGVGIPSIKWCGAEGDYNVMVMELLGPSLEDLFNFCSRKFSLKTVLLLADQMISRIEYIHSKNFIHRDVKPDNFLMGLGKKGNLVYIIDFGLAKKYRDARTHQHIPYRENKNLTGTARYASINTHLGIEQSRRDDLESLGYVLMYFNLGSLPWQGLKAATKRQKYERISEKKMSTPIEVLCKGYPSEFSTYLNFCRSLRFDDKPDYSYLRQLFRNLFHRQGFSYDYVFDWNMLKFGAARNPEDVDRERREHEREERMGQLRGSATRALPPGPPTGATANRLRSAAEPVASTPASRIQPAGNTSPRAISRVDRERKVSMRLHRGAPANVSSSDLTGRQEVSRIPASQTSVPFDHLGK
Mm_CLK3, sequence (O35492 whole entry): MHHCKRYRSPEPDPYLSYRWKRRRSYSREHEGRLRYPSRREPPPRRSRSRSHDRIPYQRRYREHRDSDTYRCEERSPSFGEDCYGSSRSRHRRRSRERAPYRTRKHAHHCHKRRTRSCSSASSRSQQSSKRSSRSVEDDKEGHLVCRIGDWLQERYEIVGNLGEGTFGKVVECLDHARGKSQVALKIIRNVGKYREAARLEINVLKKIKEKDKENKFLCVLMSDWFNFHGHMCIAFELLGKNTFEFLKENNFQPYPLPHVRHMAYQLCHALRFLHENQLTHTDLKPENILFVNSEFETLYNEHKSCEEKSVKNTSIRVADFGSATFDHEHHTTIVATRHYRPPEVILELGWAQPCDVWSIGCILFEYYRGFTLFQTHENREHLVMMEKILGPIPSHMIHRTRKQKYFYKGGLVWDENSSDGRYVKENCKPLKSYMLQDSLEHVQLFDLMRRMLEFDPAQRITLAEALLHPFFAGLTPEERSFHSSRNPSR
Mm_CLK2, sequence (O35491 whole entry): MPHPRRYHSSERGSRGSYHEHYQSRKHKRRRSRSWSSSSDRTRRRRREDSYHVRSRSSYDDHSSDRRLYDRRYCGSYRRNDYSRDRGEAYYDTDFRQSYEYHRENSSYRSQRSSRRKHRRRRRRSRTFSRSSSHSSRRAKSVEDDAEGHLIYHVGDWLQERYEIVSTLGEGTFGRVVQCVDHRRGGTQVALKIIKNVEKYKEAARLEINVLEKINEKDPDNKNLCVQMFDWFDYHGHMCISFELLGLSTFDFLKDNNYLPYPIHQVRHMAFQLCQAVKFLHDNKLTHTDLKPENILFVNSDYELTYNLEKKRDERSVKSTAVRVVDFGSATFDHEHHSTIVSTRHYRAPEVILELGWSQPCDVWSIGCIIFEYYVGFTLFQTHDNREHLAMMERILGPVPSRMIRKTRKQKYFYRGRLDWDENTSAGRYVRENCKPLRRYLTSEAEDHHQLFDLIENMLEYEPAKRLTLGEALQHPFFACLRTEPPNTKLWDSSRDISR
Hs_CDK9/CyclinT, sequence (P50750 whole entry): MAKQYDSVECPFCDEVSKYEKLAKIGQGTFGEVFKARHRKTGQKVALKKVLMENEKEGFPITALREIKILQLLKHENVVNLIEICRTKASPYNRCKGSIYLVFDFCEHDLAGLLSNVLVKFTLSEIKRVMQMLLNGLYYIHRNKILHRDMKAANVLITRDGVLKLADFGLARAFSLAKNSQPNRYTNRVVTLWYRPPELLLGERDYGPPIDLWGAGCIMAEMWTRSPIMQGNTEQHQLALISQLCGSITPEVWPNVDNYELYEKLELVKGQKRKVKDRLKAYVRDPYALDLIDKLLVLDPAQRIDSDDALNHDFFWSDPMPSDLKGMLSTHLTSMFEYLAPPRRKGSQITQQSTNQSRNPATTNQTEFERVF
Hs_CDK9/CyclinT, sequence (O60563 whole entry partner): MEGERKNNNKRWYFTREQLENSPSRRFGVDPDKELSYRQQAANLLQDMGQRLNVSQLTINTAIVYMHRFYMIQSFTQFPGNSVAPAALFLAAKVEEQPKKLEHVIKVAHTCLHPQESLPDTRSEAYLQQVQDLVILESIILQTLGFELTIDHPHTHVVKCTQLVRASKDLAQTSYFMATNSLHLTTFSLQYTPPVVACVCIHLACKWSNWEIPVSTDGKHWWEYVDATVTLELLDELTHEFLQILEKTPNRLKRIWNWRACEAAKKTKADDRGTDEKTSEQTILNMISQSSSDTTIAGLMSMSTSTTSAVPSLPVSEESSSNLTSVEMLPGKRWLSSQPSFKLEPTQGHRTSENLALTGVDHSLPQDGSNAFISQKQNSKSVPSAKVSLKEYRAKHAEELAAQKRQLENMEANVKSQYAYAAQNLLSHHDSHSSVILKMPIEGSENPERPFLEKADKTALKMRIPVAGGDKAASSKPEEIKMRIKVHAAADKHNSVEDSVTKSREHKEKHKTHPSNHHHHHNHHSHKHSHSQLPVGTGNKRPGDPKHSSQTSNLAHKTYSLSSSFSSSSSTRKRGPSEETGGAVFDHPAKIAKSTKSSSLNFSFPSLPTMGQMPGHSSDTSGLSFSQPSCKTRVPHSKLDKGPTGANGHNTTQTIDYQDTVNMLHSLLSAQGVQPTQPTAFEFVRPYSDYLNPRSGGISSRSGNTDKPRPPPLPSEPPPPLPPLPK
Hs_PIM1, sequence (P11309 whole entry): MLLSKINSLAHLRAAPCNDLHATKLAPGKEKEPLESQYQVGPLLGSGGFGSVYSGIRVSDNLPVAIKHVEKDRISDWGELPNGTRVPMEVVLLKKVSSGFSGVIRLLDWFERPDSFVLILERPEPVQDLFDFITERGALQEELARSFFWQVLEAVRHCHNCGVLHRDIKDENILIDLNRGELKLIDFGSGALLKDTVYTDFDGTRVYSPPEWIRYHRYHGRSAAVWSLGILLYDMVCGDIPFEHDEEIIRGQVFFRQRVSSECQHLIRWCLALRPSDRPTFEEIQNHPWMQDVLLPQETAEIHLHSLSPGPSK
Hs_CDK5/p25, sequence (Q00535 whole entry): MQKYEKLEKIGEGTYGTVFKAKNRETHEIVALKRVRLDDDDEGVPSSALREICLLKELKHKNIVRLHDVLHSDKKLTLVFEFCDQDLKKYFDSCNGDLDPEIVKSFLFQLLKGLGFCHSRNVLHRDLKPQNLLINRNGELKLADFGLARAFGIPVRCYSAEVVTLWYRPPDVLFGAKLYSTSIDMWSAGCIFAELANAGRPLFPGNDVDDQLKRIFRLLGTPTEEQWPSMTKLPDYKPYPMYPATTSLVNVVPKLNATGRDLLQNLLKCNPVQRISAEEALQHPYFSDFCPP
Hs_CDK5/p25, sequence (Q15078 99-307 partner limits assumed): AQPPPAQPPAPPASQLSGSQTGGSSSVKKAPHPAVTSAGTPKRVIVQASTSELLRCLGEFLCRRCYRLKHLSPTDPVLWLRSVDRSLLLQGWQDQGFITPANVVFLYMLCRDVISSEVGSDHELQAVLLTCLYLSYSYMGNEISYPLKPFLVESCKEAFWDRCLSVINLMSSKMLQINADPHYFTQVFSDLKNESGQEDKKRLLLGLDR
Mm_CLK4, sequence (O35493 whole entry): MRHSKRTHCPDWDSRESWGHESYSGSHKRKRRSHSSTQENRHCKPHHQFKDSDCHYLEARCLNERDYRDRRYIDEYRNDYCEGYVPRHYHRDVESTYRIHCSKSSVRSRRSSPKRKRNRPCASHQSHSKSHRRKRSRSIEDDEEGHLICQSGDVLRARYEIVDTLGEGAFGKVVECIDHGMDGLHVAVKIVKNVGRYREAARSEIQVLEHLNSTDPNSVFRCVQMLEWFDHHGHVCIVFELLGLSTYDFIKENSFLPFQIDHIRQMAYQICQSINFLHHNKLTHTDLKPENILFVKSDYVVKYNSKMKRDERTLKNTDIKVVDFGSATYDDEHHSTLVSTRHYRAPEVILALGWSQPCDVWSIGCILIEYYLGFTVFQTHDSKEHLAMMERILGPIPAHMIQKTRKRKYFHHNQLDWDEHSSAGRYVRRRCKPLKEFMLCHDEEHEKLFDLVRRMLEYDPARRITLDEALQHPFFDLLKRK

Cc1ccc(-n2cc(COc3cccc4cnc(Nc5cc(Cl)cc(-c6cccc(C(=O)O)c6)c5)nc34)nn2)c([N+](=O)[O-])c1 [Compound 13b]
IC50 (Mm_CLK4; [3]): 62 nM | Mm_CLK3/Mm_CLK4 (Mm_CLK4; ratio of IC50 values): 4.89 | IC50 (Mm_CLK2; [3]): 61 nM | Mm_CLK3/Mm_CLK2 (Mm_CLK2; ratio of IC50 values): 4.97 | IC50 (Mm_CLK1 [1]; [3]): 127 nM | Mm_CLK3/Mm_CLK1 (Mm_CLK1 [1]; ratio of IC50 values): 2.38 | remaining activity at 1 µM (Hs_HASPIN; compound 1 μM): 74% | remaining activity at 10 µM (Hs_HASPIN; compound 10 μM): 74% | remaining activity at 1 µM (Rn_DYRK1A; compound 1 μM): 92% | remaining activity at 10 µM (Rn_DYRK1A; compound 10 μM): 62% | remaining activity at 1 µM (Hs_PIM1; compound 1 μM): 88% | remaining activity at 10 µM (Hs_PIM1; compound 10 μM): ≥ 100% | remaining activity at 1 µM (Hs_CDK9/CyclinT; compound 1 μM): 83% | remaining activity at 10 µM (Hs_CDK9/CyclinT; compound 10 μM): 47% | remaining activity at 1 µM (Hs_GSK3β; compound 1 μM): ≥ 100% | remaining activity at 10 µM (Hs_GSK3β; compound 10 μM): 43% | activity against CLK1 in primary screening (Mm_CLK1 [2]; 1 and 10 µM): significant activity against CLK1 | remaining activity at 1 µM (Mm_CLK1 [2]; compound 1 μM, ATP 10 µM, means, n = 2, read-out: Residual kinase activity Mm_CLK1): 20% | remaining activity at 10 µM (Mm_CLK1 [2]; compound 10 μM, ATP 10 µM, means, n = 2, read-out: Residual kinase activity Mm_CLK1): 11% | remaining activity at 1 µM (Hs_CDK5/p25; compound 1 μM): 92% | remaining activity at 10 µM (Hs_CDK5/p25; compound 10 μM): 37% | remaining activity at 1 µM (Hs_CK1ε; compound 1 μM): ≥ 100% | remaining activity at 10 µM (Hs_CK1ε; compound 10 μM): ≥ 100% | IC50 (Mm_CLK3): 300 nM and 303 nM | inhibition of DYRK kinases (DYRK kinases): low, but significant inhibition; also recorded: weak inhibitor
